We go through 1 compound from patent publication US4950591A, “Membrane Na^+ channel protein and related therapeutic compounds” (priority 1987, dated 1990).

Assay [1] has as its target T1, Na^+ channel in crude membrane preparation (trachea epithelial) (Bos taurus, UniProt A5D7U4+F1MJW3+P55270).
T1 construct: results for both the purified reconstituted channel protein and for the crude membrane preparation; from tissue; host or cells: trachea epithelial membranes, crude preparation (bovine)
T1 sequence (P55270 1-650): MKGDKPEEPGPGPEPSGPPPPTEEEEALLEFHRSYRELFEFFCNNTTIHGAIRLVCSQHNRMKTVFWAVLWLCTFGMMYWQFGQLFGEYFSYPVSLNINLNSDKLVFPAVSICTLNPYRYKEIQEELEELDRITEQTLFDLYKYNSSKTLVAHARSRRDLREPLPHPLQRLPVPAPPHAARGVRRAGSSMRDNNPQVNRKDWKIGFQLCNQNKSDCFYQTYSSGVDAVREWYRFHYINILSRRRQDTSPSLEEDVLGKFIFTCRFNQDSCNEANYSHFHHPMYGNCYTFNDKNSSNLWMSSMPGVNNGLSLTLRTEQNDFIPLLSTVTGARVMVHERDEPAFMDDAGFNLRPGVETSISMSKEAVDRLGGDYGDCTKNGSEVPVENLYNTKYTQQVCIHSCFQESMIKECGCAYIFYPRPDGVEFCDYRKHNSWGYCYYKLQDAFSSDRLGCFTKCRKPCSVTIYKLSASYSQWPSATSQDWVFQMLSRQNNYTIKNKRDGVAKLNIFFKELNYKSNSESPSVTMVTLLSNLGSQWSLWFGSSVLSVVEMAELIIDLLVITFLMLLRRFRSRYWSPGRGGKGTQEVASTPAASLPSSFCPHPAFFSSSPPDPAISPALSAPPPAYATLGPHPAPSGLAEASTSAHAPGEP
T1 sequence (A5D7U4 1-641): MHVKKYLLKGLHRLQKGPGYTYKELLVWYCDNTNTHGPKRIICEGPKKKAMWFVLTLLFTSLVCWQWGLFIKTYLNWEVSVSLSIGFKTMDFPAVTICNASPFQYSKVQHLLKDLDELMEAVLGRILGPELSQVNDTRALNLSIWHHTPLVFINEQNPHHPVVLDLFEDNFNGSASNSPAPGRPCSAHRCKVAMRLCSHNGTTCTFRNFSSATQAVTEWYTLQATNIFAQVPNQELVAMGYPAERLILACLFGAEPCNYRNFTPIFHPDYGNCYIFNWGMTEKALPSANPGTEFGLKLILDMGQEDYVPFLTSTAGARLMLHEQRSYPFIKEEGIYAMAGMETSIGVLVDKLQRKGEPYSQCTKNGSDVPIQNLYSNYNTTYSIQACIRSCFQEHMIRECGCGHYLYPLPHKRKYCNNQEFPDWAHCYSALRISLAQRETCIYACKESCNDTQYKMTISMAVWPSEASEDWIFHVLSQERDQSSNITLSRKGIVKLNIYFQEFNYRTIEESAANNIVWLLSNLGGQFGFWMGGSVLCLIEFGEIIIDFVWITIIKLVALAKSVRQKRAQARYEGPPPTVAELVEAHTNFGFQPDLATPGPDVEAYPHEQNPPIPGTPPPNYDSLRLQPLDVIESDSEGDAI
T1 sequence (F1MJW3 1-652): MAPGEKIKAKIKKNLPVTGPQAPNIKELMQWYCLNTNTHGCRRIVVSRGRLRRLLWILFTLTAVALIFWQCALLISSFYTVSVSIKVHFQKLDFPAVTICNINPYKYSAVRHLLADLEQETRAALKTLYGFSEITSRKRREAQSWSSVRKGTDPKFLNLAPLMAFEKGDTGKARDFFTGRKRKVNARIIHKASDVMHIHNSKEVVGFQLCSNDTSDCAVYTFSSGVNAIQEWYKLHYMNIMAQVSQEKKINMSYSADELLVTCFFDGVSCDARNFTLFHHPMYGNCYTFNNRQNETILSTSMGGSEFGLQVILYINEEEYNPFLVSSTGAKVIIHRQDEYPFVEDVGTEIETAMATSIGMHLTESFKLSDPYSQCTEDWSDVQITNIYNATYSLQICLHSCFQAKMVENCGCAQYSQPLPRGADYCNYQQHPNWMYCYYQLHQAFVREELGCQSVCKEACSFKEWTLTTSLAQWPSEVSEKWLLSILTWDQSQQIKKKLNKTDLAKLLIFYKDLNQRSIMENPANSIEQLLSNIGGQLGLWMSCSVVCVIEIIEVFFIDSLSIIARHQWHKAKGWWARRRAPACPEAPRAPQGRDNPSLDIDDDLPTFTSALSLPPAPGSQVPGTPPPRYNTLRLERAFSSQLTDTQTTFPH
Kind of assay: Amiloride inhibition of crude membrane preparation. The assay is classed as biochemical, bovine.

Assay [2] concerns the target T2, purified Na^+ channel protein (Bos taurus, UniProt A5D7U4+F1MJW3+P55270).
T2 construct: purifying a membrane protein from bovine kidney cortex and bovine trachea epithelia apical membranes; from tissue
T2 sequence (P55270 1-650): T1 sequence (P55270 1-650)
T2 sequence (A5D7U4 1-641): T1 sequence (A5D7U4 1-641)
T2 sequence (F1MJW3 1-652): T1 sequence (F1MJW3 1-652)
The assay can be described thus: Amiloride inhibition of purified reconstituted channel. The class given is biochemical, bovine. On the procedure:
By way of illustrative example, bovine kidney cortex cell membranes or bovine trachea apical cell membranes are collected and pooled until the pooled membranes contain about 100 mg of protein as determined by the Lowry method. The pooled membranes in 100 mM HEPES, pH 7.4, are centrifuged at 40,000 g for 30 minutes. The pelleted material was resuspended in 100 mM HEPES, pH 7.4, containing 3% sodium cholate (4.5-5.5 mg of membrane protein/3 ml of solution) containing in addition bacitracin (100 microgram/g), phenylmethylsulfonyl fluoride (0.5%) and iodoacetamide (1 mM). The mixture is chilled on ice for 60 minutes with occasional agitation, then centrifuged at 40,000 g for 30 minutes. The supernatant, containing the solubilized protein, may be purified immediately or frozen at -70° for later purification.
The solubilized protein preparation obtained from about 10 g of cell membrane is purified using 100 ml of the affinity gel described in Example 2. The protein solution and gel are stirred overnight in the cold. The gel is washed with 20 volumes of HEPES solution, pH 7.2, by filtration. The adsorbed protein is eluted with 10^-3 M amiloride in dilute saline containing 0.5% cholate by stirring for two hours. The elution was repeated and the combined eluates are dialyzed against 100 mM HEPES/1% sodium cholate for one week in the cold, changing buffers once or twice a day. […]

As for `N=C(N)NC(=O)c1nc(Cl)c(N)nc1N` [amiloride, 3,5-diamino-N-(aminoiminomethyl)-6-chloropyrazinecarboxamide], the IC50 in assay [1] was 100 nM; in assay [2] (Amiloride, IC50 (micromolar), PURIFIED, Table I, trachea epithelial, purified reconstituted channel protein) it was 70 nM; in assay [2] (IC50 (amiloride sensitivity of purified channel), purified channel), roughly 70 nM.
